Patent US8163509B2, “Biological markers predictive of anti-cancer response to insulin-like growth factor-1 receptor kinase inhibitors” (The Regents of the University of Colorado, A Body Corporate, priority 2008, dated 2012)

Target: T1, IGF1R (Homo sapiens, UniProt P08069)
T1 construct: endogenous in cells; host or cells: HT29 and HCT116 CRC cell lines
Test: Meso Scale Discovery (MSD) assay of phosphorylated IGF1R
Format: cell-based
Details: HT29 and HCT116; 72 h; PQIP 0.4 μmol/L, SN38 0.004 μmol/L, Oxaliplatin 1.0 μmol/L
Experimental: Detection of IGF1R using Meso Scale Discovery assays (MSD): HT29 and HCT116 CRC cell lines were seeded into 6-well plates, allowed to attach for 24 hours and exposed to PQIP and chemotherapy (SN38, or Oxaliplatin) alone or in combination for 72 h. Following exposure, cells were rinsed with PBS and scraped into RIPA lysis buffer containing protease inhibitors, EDTA, NaF, and sodium orthovanadate. Total protein was quantified using the BioRad Dc Protein Assay (BioRad, Hercules, Calif.). Fifty micrograms of protein in 25 μL was added per well for MSD detection of phosphorylated IGF-1R according to manufacturer's instructions (Meso Scale Discovery, Gaithersburg, Md.).
Cells were exposed to PQIP (0.4 μmol/L) and chemotherapy (SN38 0.004 μmol/L, or Oxaliplatin 1.0 μmol/L) alone or in combination for 72 h. Protein was extracted and analyzed for phospho/total IGF1R levels using a Meso Scale Discovery (MSD; Gaithersburg, Md. 20877) assay.

T1 sequence (P08069 31-1367): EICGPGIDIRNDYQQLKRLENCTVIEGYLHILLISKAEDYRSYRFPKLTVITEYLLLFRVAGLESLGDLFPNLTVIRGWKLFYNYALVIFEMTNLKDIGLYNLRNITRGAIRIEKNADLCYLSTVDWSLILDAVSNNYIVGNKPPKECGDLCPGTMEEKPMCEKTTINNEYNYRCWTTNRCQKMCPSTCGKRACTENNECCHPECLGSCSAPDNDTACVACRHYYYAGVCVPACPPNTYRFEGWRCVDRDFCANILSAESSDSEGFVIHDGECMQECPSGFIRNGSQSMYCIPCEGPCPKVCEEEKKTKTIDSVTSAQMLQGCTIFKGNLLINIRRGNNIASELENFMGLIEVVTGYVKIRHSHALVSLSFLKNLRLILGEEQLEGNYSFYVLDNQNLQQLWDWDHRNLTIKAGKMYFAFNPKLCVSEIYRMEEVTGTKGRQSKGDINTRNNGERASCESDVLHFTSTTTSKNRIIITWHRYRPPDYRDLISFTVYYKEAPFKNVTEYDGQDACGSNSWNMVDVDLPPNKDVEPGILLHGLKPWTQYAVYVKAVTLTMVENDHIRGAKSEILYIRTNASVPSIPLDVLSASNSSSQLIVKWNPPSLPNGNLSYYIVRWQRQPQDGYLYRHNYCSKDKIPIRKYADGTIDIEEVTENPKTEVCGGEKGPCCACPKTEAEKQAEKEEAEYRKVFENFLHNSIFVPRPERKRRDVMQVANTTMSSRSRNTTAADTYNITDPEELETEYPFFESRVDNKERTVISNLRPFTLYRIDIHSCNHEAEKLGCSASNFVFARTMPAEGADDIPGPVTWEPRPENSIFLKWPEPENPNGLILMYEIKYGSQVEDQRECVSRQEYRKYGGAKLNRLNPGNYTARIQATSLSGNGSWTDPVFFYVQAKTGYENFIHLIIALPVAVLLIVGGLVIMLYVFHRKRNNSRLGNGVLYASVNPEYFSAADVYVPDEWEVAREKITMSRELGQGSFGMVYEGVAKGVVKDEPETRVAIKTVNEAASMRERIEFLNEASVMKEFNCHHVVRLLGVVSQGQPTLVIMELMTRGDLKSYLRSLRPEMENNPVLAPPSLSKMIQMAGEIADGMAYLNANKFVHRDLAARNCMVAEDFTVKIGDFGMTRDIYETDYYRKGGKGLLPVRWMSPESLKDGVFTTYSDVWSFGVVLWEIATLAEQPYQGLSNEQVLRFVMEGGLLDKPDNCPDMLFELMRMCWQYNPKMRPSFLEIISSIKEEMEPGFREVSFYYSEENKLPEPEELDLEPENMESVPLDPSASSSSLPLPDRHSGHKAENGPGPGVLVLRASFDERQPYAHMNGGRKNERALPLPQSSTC

Row | Structure (SMILES) | effect on phosphorylated IGF1R, agent alone
1 | CCc1c2c(nc3ccc(O)cc13)-c1cc3c(c(=O)n1C2)COC(=O)[C@]3(O)CC [SN38, 7-Ethyl-10-hydroxy-camptothecin, reference compound] | no significant effect
2 | O=C1[O][Pt]2([NH][C@@H]3CCCC[C@H]3[NH]2)[O]C1=O [Oxaliplatin, reference compound] | no significant effect
